Source: US10844057B2, “Process for preparing JAK inhibitors and intermediates thereof” (priority 2018, dated 2020)
Read-outs that look alike come from different tables or passages of the source.

Experiments:
[1] = tested on: IL-2 stimulated STAT5 phosphorylation in Tall-1 human T cell line; experiment: Inhibition of IL-2 stimulated pSTAT5 in Tall-1 T cells; assay type: cell-based; conditions: IL-2 300 ng/mL, pSTAT5 AlphaLisa, Tall-1 cells, read-out: Tall-1 pIC50 (converted)
Protocol: Assay 2: Inhibition of IL-2 Stimulated pSTAT5 in Tall-1 T Cells
The potency of test compounds for inhibition of interleukin-2 (IL-2) stimulated STAT5 phosphorylation was measured in the Tall-1 human T cell line (DSMZ) using AlphaLisa.
Phosphorylated STAT5 was measured via the AlphaLISA SureFire Ultra pSTAT5 (Tyr694/699) kit (PerkinElmer).
Compounds were serially diluted in DMSO and dispensed acoustically to empty wells. Assay media (phenol red-free DMEM (Life Technologies) supplemented with 10% FBS (ATCC)) was dispensed (4 μL/well) and plates shaken at 900 rpm for 10 mins. Cells were seeded at 45,000 cells/well in assay media (4 μL/well), and incubated at 37° C., 5% CO2 for 1 hour, followed by the addition of IL-2 (R&D Systems; final concentration 300 ng/mL) in pre-warmed assay media (4 μL) for 30 minutes. […] The lysate was shaken at 900 rpm for 10 minutes at room temperature (RT). Phosphorylated STAT5 was measured via the pSTAT5 AlphaLisa kit (PerkinElmer). Freshly prepared acceptor bead mixture was dispensed onto lysate (5 μL) under green filtered <100 lux light. Plates were shaken at 900 rpm for 2 mins, briefly spun down, and incubated for 2 hrs at RT in the dark. Donor beads were dispensed (5 μL) under green filtered <100 lux light. Plates were shaken at 900 rpm for 2 minutes, briefly spun down, and incubated overnight at RT in the dark. Luminescence was measured with excitation at 689 nm and emission at 570 nm using an EnVision plate reader (PerkinElmer) under green filtered <100 lux light.
To determine the inhibitory potency of test compounds in response to IL-2, the average emission intensity of beads bound to pSTAT5 was measured in a human T cell line. IC50 values were determined from analysis of the inhibition curves of signal intensity versus compound concentration. Data are expressed as pIC50 (negative decadic logarithm IC50) values (mean±standard deviation).

[2] = Lung and plasma exposure in mice after oral aspiration; assay type: in vivo; conditions: mouse, other: oral aspiration, 50 µg/animal; for concentration at 5 h: Balb/c mice, 1 mg/mL, 50 μL via oral aspiration
Protocol: Adult Balb/c mice from Harlan were used in the assay. […] Animals were placed in lateral recumbency post dose and monitored for full recovery from anesthesia before being returned to their home cage. Four hours later, animals were once again briefly anesthetized and challenged with either vehicle or IL-13 (0.03 μg total dose delivered, 50 μL total volume) via oral aspiration before being monitored for recovery from anesthesia and returned to their home cage. One hour after vehicle or IL-13 administration, whole blood and lungs were collected for both pSTAT6 detection in lung homogenates using a Perkin Elmer AlphaLISA® SureFire® Ultra™ HVp-STAT6 (Tyr641) assay kit and for total drug concentration analysis in both lung and plasma. Blood samples were centrifuged (Eppendorf centrifuge, 5804R) for 4 minutes at approximately 12,000 rpm at 4° C. to collect plasma. […] Plasma and lung levels of test compound were determined by LC-MS analysis against analytical standards constructed into a standard curve in the test matrix. A lung to plasma ratio was determined as the ratio of the lung concentration in ng/g to the plasma concentration in ng/mL at 5 hours.

[3] = tested on: TSLP-evoked TARC release in human peripheral blood mononuclear cells; experiment: Inhibition of TSLP-evoked TARC release in human peripheral blood mononuclear cells; assay type: cell-based; conditions: human PBMC, 3 to 5 donors, TSLP 10 ng/mL, 48 hours, ELISA; read-out: pIC50 ± st. dev., inhibition of TSLP-evoked TARC release (converted)
Text: Assay 4: Inhibition of TSLP-Evoked TARC Release in Human Peripheral Blood Mononuclear Cells
Thymic stromal lymphopoietin (TSLP) and thymus and activation-regulated chemokine (TARC) are overexpressed in asthmatic airways, and correlate with disease severity. In the lungs, TSLP may be released by bronchial epithelial cells in response to allergens and viral infections. TSLP signals through an IL-7Rα/TSLPR heterodimer found in a broad range of tissues and cell types, including epithelial cells, endothelial cells, neutrophils, macrophages, and mast cells. The binding of TSLP to its receptor induces a conformational change that activates JAK1 and JAK2 to phosphorylate various transcription factors, including STAT3 and STAT5. In immune cells, this triggers a cascade of intracellular events that result in cell proliferation, anti-apoptosis, dendritic cell migration, and production of Th2 cytokines and chemokines. In peripheral blood mononuclear cells (PBMC), TSLP has a proinflammatory effect by activating myeloid dendritic cells to attract and stimulate T cells, a process mediated by the chemoattractant TARC.
The potencies of the test compounds were measured for inhibition of TARC release.
PBMC aliquots (previously isolated from whole blood and frozen in aliquots at −80° C.) from 3 to 5 donors were thawed at 37° C. and added dropwise to 40 mL pre-warmed, sterile-filtered, complete RPMI media in 50 mL Falcon tubes. Cells were pelleted and resuspended in complete media at 2.24×10^6 cells/mL. […] Cells were allowed to rest for 1 hour at 37° C. with 5% CO2.
Compounds were received as 10 mM stock solutions in DMSO. 3.7-fold serial dilutions were performed to generate 9 concentrations of test compound in DMSO at 300× the final assay test concentration. […] 95 μL of 0.2% DMSO in complete media was added to the untreated control wells. Cells were pre-treated with compound for 1 hour at 37° C. with 5% CO2 prior to stimulation.
Immediately prior to use, an aliquot was thawed and prepared at 20× the final assay concentration in complete media. 10 μL of 20×TSLP was added to each well of PBMC, for a final assay concentration of 10 ng/mL. 10 μL of complete media was added to the unstimulated control wells. Cells were stimulated in the presence of compound for 48 hours at 37° C. with 5% CO2.
Following stimulation, the cell culture supernatants were harvested and TARC levels were detected by enzyme-linked immunosorbent assay (ELISA), using Human CCL17/TARC Quantikine ELISA Kit (R&D Systems # DDN00) according to the manufacturer's instructions.
For dose response analysis, the log [test compound (M)] was plotted versus the percent response values for each donor, and IC50 values were determined using a nonlinear regression analysis with GraphPad Prism Software using the 4-parameter sigmoidal dose-response algorithm with variable slope. Data are expressed as mean pIC50 (negative decadic logarithm IC50) values calculated from pIC50 values of individual donors and rounded to one decimal place.

Structure (SMILES): CCc1cc(O)c(F)cc1-c1ccc2c(-c3nc4c([nH]3)CN(C(C)C)[C@H](C(=O)N3CC(N(C)C)C3)C4)n[nH]c2c1 [Example 8, (S)-(3-(dimethylamino)azetidin-1-yl)(2-(6-(2-ethyl-5-fluoro-4-hydroxyphenyl)-1H-indazol-3-yl)-5-isopropyl-4,5,6,7-tetrahydro-3H-imidazo[4,5-c]pyridin-6-yl)methanone]
- IC50 [1]: 1.58 nM
- Kp at 5 h ([2]; Balb/c, lung and plasma, lung ng/g to plasma ng/mL, mice, read-out: Lung to Plasma ratio at 5 hr): 381
- concentration at 5 h ([2]; lung, read-out: Lung Concentration (ng/g) at 5 hr): 22100 ± 5550 ng/g
- concentration at 5 h ([2]; plasma, read-out: Plasma Concentration (ng/mL) at 5 hr): 58 ± 17 ng/mL
- IC50 [3]: 100 nM
